Assay results reported in patent US20210347785A1, “PREPARATION AND APPLICATION OF AROMATIC COMPOUND HAVING IMMUNOREGULATORY FUNCTION” (SHANGHAI ENNOVABIO PHARMACEUTICALS CO., LTD., priority 2018, published 2021).

Molecular target: T1, PD-1/PD-L1 (Homo sapiens, UniProt Q9NZQ7)
T1 construct: purchased Cisbio 63ADK000CPDEC
Assay: PD-1/PD-L1 homogeneous time-resolved fluorescence (HTRF) binding assay
Settings: 665 nm/620 nm ratio
From the text: Test Example 1: Detect the Inhibitory Effect of the Compound to the Binding of PD-1/PD-L1 Protein
The PD-1/PD-L1 homogeneous time-resolved fluorescence method is used to detect the binding ability of the compound with PD-L1.
PD-1/PD-L1 binding assay kit (Cisbio, Cat #63ADK000CPDEC) was chosen, which contains two proteins Tag 1-PD-L1 and Tag 2-PD-1, and two antibodies Anti-Tag1-Eu^3+ and Anti-Tag2-XL 665. The principle of detection was: Anti-tag1-Eu^3+ was used as the donor of HTRF, and Anti-Tag2-XL 665 was used as the acceptor of HTRF. When Tag 1-PD-L1 interacts with Tag 2-PD-1, the added HTRF donor and the acceptor are close to each other. After the donor has received the excitation energy, part of the energy was transferred to the acceptor, thus generating 665 nm emission light. […] The inhibitory effect of the compound can be determined by comparing the ratio of 665 nm/620 nm. Tag 1-PD-L1 was diluted with Diluent buffer (cat #62DLBDDF) to a working concentration of 10 nM, Tag 2-PD-1 was diluted with Diluent buffer to a working concentration of 500 nM, Anti-Tag1-Eu^3+ was diluted with detection buffer (cat #62DB1FDG) at a ratio of 1:100, Anti-Tag2-XL 665 was diluted with detection buffer at a ratio of 1:20, and the compound to be detected was diluted with diluent buffer to a final concentration of 2×. Compound solution (2 μL) was added to each well of a 384-well plate, then Tag 1-PD-L1 (4 μL) and Tag 2-PD-1 (4 μL) were added successively. The mixture was incubated at room temperature for 15 minutes. Then Anti-Tag1-Eu^3+ (5 μL) and Anti-Tag2-XL 665 (5 μL) were added, and the mixture was incubated overnight at room temperature. BioTek Synergy™ Neo2 multifunctional microplate reader was used to detect so as to provide the 665 nm/620 nm ratio. PrismGraphd 5.02 was used to fit the IC50 curve.

T1 sequence (Q9NZQ7 19-238 limits assumed): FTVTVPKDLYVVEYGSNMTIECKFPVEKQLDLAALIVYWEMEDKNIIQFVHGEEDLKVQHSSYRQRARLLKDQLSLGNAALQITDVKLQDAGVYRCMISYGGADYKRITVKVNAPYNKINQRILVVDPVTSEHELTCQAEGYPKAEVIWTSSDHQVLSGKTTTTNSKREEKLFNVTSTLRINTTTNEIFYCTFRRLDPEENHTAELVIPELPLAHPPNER

Cc1c(Nc2csc3cc(CN4C[C@@H](O)C[C@H]4C(=O)O)cnc23)cccc1-c1ccccc1 [Compound 2, (2S,4S)-4-hydroxy-1-((3-((2-methyl-[1,1′-biphenyl]-3-yl)amino)thieno[3,2-b]pyridine-6-yl)methyl)pyrrolidine-2-carboxylic acid] and Cc1c(Nc2csc3cc(CNCCO)cnc23)cccc1-c1ccccc1 [Compound 1, 2-(((3-((2-Methyl-[1,1′-biphenyl]-3-yl)amino)thieno[3,2-b]pyridin-6-yl)methyl)amino)ethane-1-ol] cannot be ordered by IC50: less than 100 nM for the first, less than 100 nM for the second.

First: OCCNCc1nc2ccnc(Nc3cccc(-c4ccccc4)c3Cl)c2s1 [Compound 17, 2-(((4-((2-chloro-[1,1′-biphenyl]-3-yl)amino)thiazolo[5,4-c]pyridin-2-yl)methyl)amino)ethane-1-ol]
Second: NC(=O)CNCc1nc2c(Nc3cccc(-c4ccccc4)c3Cl)nccc2s1 [Compound 3, 2-(((4-((2-chloro-[1,1′-biphenyl]-3-yl)amino)thiazolo[4,5-c]pyridin-2-yl)methyl)amino) acetamide]
The IC50 of the first is higher: 100 to 1000 nM for the first, less than 100 nM for the second.

COc1nc(-c2cccc(-c3cccc(Nc4nccc5sc(CNCC(=O)O)nc45)c3Cl)c2Cl)ccc1CNC[C@@H]1CCC(=O)N1 [Compound 18, (S)-((4-((2,2′-dichloro-3′-(6-methoxy-5-((((5-carbonylpyrrolidin-2-yl)methyl)amino)methyl)pyridin-2-yl)-[1,1′-biphenyl]-3-yl)amino)thiazolo[4,5-c]pyridin-2-yl)methyl)glycine] and COc1nc(-c2cccc(-c3cccc(Nc4nccc5sc(CNCC(=O)O)nc45)c3Cl)c2C)ccc1CNC[C@@H]1CCC(=O)N1 [Compound 20] cannot be ordered by IC50: less than 100 nM for the first, less than 100 nM for the second.

COc1nc(-c2cccc(-c3cccc(Nc4nccc5sc(CN6CCC(CC(=O)O)CC6)nc45)c3Cl)c2Cl)cc(C)c1CNC[C@@H]1CCC(=O)N1 [Compound 53] and COc1nc(-c2cccc(-c3cccc(Nc4nccc5sc(CN6CCC(CC(=O)O)C6)nc45)c3Cl)c2Cl)cc(C)c1CNC[C@@H]1CCC(=O)N1 (some centres unmarked) [Compound 52] cannot be ordered by IC50: less than 100 nM for the first, less than 100 nM for the second.

O=C(O)CNCc1nc2c(Nc3cccc(-c4cccc(-c5ccc(CNC[C@@H]6CCC(=O)N6)c(O)n5)c4Cl)c3Cl)nccc2n1CCO [Compound 23] and Cc1c(-c2ccc(CNC[C@@H]3CCC(=O)N3)c(O)n2)cccc1-c1cccc(Nc2nccc3sc(CNCC(=O)O)nc23)c1Cl [Compound 21] cannot be ordered by IC50: less than 100 nM for the first, less than 100 nM for the second.

O=C(O)CNCc1nc2c(Nc3cccc(-c4cccc(OCCCN5CCC(O)C5)c4)c3Cl)nccc2s1 (centres unmarked) [Compound 15, ((4-((2-chloro-3′-(3-(3-hydroxypyrrolidine-1-yl)propoxy)-[1,1′-biphenyl]-3-yl)amino)thiazolo[4,5-c]pyridine-2-yl)methyl)glycine] and OCCNCc1nc2c(Nc3cccc(-c4cccc(OCCCCN5CCC(O)C5)c4)c3Cl)nccc2s1 (centres unmarked) [Compound 12, 1-(4-((2′-chloro-3′-((2-(((2-hydroxyethyl)amino)methyl)thiazolo[4,5-c]pyridin-4-yl)amino)-[1,1′-biphenyl]-3-yl)oxo)butyl)pyrrolidin-3-ol] cannot be ordered by IC50: less than 100 nM for the first, less than 100 nM for the second.

First: O=C(O)[C@@H]1C[C@H](O)CN1Cc1nc2c(Nc3cccc(-c4ccccc4)c3Cl)nccc2s1 [Compound 4]
Second: O[C@H]1CCN(Cc2nc3c(Nc4cccc(-c5ccccc5)c4Cl)nccc3s2)C1 [Compound 7, (S)-1-((4-((2-Chloro-[1,1′-biphenyl]-3-yl)amino)thiazolo[4,5-c]pyridin-2-yl)methyl)pyrrolidin-3-ol]
The IC50 of the first is lower: less than 100 nM for the first, 100 to 1000 nM for the second. The first is the more potent here.

COc1nc(-c2cccc(-c3cccc(Nc4nccc5sc(CN6CCC[C@@H]6C(=O)O)nc45)c3Cl)c2Cl)cc(C)c1CNC[C@@H]1CCC(=O)N1 [Compound 47] and COc1nc(-c2cccc(-c3cccc(Nc4nccc5sc(CN6C[C@@H](O)C[C@H]6C(=O)O)nc45)c3Cl)c2Cl)cc(C)c1CNC[C@@H]1CCC(=O)N1 [Compound 48] cannot be ordered by IC50: less than 100 nM for the first, less than 100 nM for the second.

COc1nc(-c2cccc(-c3cccc(Nc4nccc5sc(CN6CCC7(CNC(=O)C7)C6)nc45)c3Cl)c2Cl)cc(C)c1CNC[C@@H]1CCC(=O)N1 (some centres unmarked) [Compound 46] and COc1nc(-c2cccc(-c3cccc(Nc4nccc5sc(CN6CCC(C)(C(=O)O)CC6)nc45)c3Cl)c2Cl)cc(C)c1CNC[C@@H]1CCC(=O)N1 [Compound 49] cannot be ordered by IC50: less than 100 nM for the first, less than 100 nM for the second.

First: COc1nc(-c2cccc(-c3cccc(Nc4nccc5sc(CNCC(=O)O)nc45)c3Cl)c2Cl)cc(C)c1CNC[C@@H]1CCC(=O)N1 [Compound 27]
Second: COc1nc(-c2cccc(-c3cccc(Nc4nccc5sc(CNCC(=O)O)nc45)c3Cl)c2Cl)cnc1CNC[C@@H]1CCC(=O)N1 [Compound 26]
The IC50 of the first is lower: less than 100 nM for the first, 100 to 1000 nM for the second. The first is the more potent here.

COc1nc(-c2cccc(-c3cccc(Nc4nccc5sc(CN6CCC(C#N)CC6)nc45)c3Cl)c2Cl)cc(C)c1CNC[C@@H]1CCC(=O)N1 [Compound 56] and COc1nc(-c2cccc(-c3cccc(Nc4nccc5sc(CN6CC[C@H](C(=O)O)C6)nc45)c3Cl)c2Cl)cc(C)c1CNC[C@@H]1CCC(=O)N1 [Compound 44] cannot be ordered by IC50: less than 100 nM for the first, less than 100 nM for the second.

COc1nc(-c2cccc(-c3cccc(Nc4nccc5sc(CN6CC(NC(C)=O)C6)nc45)c3Cl)c2Cl)ccc1CN1CC2(CCC(=O)N2)C1 [Compound 29] and COc1nc(-c2cccc(-c3cccc(Nc4nccc5sc(CN6CC(C(=O)O)C6)nc45)c3Cl)c2Cl)ccc1CN1CC2(CCC(=O)N2)C1 [Compound 32] cannot be ordered by IC50: less than 100 nM for the first, less than 100 nM for the second.

COc1nc(-c2cccc(-c3cccc(Nc4nccc5sc(CNCC(=O)O)nc45)c3Cl)c2Cl)ccc1CN1CC2(CCC(=O)N2)C1 [Compound 22] and COc1nc(-c2cccc(-c3cccc(Nc4nccc5sc(CN6CCC[C@H](C(=O)O)C6)nc45)c3Cl)c2Cl)ccc1CN1CC2(CCC(=O)N2)C1 [Compound 33] cannot be ordered by IC50: less than 100 nM for the first, less than 100 nM for the second.

COc1nc(-c2cccc(-c3cccc(Nc4nccc5sc(CN[C@H]6CC[C@H](C(=O)O)CC6)nc45)c3Cl)c2Cl)cc(C)c1CNC[C@@H]1CCC(=O)N1 [Compound 50] and COc1nc(-c2cccc(-c3cccc(Nc4nccc5sc(CN[C@H]6CC[C@@H](C(=O)O)CC6)nc45)c3Cl)c2Cl)cc(C)c1CNC[C@@H]1CCC(=O)N1 [Compound 51] cannot be ordered by IC50: less than 100 nM for the first, less than 100 nM for the second.

COc1nc(-c2cccc(-c3cccc(Nc4nccc5sc(CN6CCC(C(=O)O)CC6)nc45)c3Cl)c2Cl)ccc1CNC[C@@H]1CCC(=O)N1 [Compound 40] and COc1nc(-c2cccc(-c3cccc(Nc4nccc5sc(CN6CCCC[C@@H]6C(=O)O)nc45)c3Cl)c2Cl)ccc1CNC[C@@H]1CCC(=O)N1 [Compound 42] cannot be ordered by IC50: less than 100 nM for the first, less than 100 nM for the second.

O=C(O)CNCc1nc2c(Nc3cccc(-c4ccccc4)c3Cl)nccc2s1 [Compound 8, ((4-((2-Chloro-[1,1′-biphenyl]-3-yl)amino)thiazolo[4,5-c]pyridin-2-yl)methyl)glycine] and COc1nc(-c2cccc(-c3cccc(Nc4nccc5sc(CNCC#N)nc45)c3Cl)c2Cl)ccc1CNC[C@@H]1CCC(=O)N1 [Compound 24] cannot be ordered by IC50: less than 100 nM for the first, less than 100 nM for the second.

COc1nc(-c2cccc(-c3cccc(Nc4nccc5sc(CN6C[C@@H](O)CC6=O)nc45)c3Cl)c2Cl)ccc1CN1CC2(CCC(=O)N2)C1 [Compound 31] and COc1nc(-c2cccc(-c3cccc(Nc4nccc5sc(CN6CCC[C@@H]6C(=O)O)nc45)c3Cl)c2Cl)ccc1CNC[C@@H]1CCC(=O)N1 [Compound 41] cannot be ordered by IC50: less than 100 nM for the first, less than 100 nM for the second.

COc1cc(-c2cccc(-c3cccc(Nc4nccc5sc(CN6CCC(C(=O)O)CC6)nc45)c3Cl)c2Cl)nc(C)c1CNC[C@@H]1CCC(=O)N1 [Compound 43] gave an IC50 of less than 100 nM.
